Measured values from PMC7558102, “Hybrid Multimodal Imaging Synthons for Chemoselective and Efficient Biomolecule Modification with Chelator and Near-Infrared Fluorescent Cyanine Dye” (Pharmaceuticals, 2020).
Where two headings read alike, the source gives them in different places.

Key:
[1] = logD of the unconjugated NIR cyanine dyes 1–3; assay type: physicochemical; details: 1-octanol/water; unconjugated dye
[2] = photophysical properties (absorbance and emission measurements); assay type: physicochemical; details: for log ε: at λmax(abs); for λmax(em): excitation wavelength λex = 650 nm
Protocol: Finally, the photophysical properties were determined for dyes, MIS and their conjugates. It could be shown that the photophysical properties remained largely unaltered, including absorption coefficients and emission characteristics (Table 1). […] The only change in photophysical properties we qualitatively observed was an increase in the quantum yields of the dye conjugates compared to their unconjugated leads 1–3, an effect that was described before and can be attributed to the conjugation of sterically demanding groups (such as the PESIN homodimers used here), resulting in a decrease in aggregation of the dye molecules and thus a reduced fluorescence quenching. γ-Counting was performed using a 2480 Wizard gamma counter system from Perkin Elmer. A Cary 100 Bio system (Varian) was used to record the UV/Vis-Spectra together with 4 mL PMMA cuvettes from Sigma-Aldrich. Furthermore, for absorbance and emission measurements, a Tecan Infinite M200 Microplate reader together with a Nunc Micro-Well 96 solid plate from ThermoFisher was used.

[3] = assay type: physicochemical; details: pH 7.4
Protocol: (§1) The mixtures were vigorously shaken for 5 min on a vibrating plate. After subsequent centrifugation at 13,000 rpm for 5 min, 125 µL was taken from each phase and measured in a γ-counter. The logD values were calculated from three or four independent experiments, each performed in triplicate. For 18, the logD was determined by semipreparative HPLC. For this purpose, a solution of 18 (10 µL, c = 5 × 10^−4 mol/L) in water was added to a mixture of 1 mL 1-octanol and 990 µL phosphate buffered solution (0.05 M, pH 7.4) and vigorously shaken for 5 min. After centrifugation, the phases were separated and both phases were analyzed by semipreparative HPLC and the peaks of the UV signals at 214 nm were integrated. The logD was determined by three separate measurements, each experiment performed in triplicate.

[4] = water/1-octanol partition coefficients (logD) of 68Ga-labeled compounds, γ-counting; assay type: physicochemical; details: pH 7.4
Protocol: as §1

Compound	logD [1]	Stokes Shift [2]	λmax(abs) [2]	log ε [2]	λmax(em) [2]	logD [3]	logD [4]
CC1(C)C(/C=C/C2=C(c3ccc(C(=O)O)cc3)C(=C/C=C3/N(CCCCS(=O)(=O)[O-])c4ccc5ccccc5c4C3(C)C)/CCC2)=[N+](CCCCS(=O)(=O)O)c2ccc3ccccc3c21 [Compound 1]	-1.03 ± 0.11	11 nm	804 nm	5.00 M^−1 cm^−1	815 nm		
CC1(C)C(/C=C/C2=C(c3ccccc3)C(=C/C=C3/N(CCCCS(=O)(=O)[O-])c4ccc(S(=O)(=O)O)cc4C3(C)C)/CCC2)=[N+](CCCCS(=O)(=O)O)c2ccc(C(=O)O)cc21 [Compound 2]	-4 ± 0.11	20 nm	761 nm	5.44 M^−1 cm^−1	781 nm		
CSCC[C@H](NC(=O)[C@H](CC(C)C)NC(=O)[C@H](Cc1c[nH]cn1)NC(=O)CNC(=O)[C@@H](NC(=O)[C@H](C)NC(=O)[C@H](Cc1c[nH]c2ccccc12)NC(=O)[C@H](CCC(N)=O)NC(=O)CCOCCOCCOCCOCCNC(=O)CON=Cc1ccc(C(=O)NCCCN(CCCNC(=O)c2ccc(C=NOCC(=O)NCCOCCOCCOCCOCCC(=O)N[C@@H](CCC(N)=O)C(=O)N[C@@H](Cc3c[nH]c4ccccc34)C(=O)N[C@@H](C)C(=O)N[C@H](C(=O)NCC(=O)N[C@@H](Cc3c[nH]cn3)C(=O)N[C@@H](CC(C)C)C(=O)N[C@@H](CCSC)C(N)=O)C(C)C)cc2)CC(=O)N[C@H](CSC2CC(=O)N(CCN3C(=O)CC(SC[C@H](NC(=O)[C@H](CCCCNC(=O)CCc4ccc(C5=C(C=CC6=[N+](CCCCS(=O)(=O)[O-])c7ccc(S(=O)(=O)O)cc7C6(C)C)CCCC5=CC=C5N(CCCCS(=O)(=O)O)c6ccc(S(=O)(=O)O)cc6C5(C)C)cc4)NC(=O)CC[C@H](C(=O)O)N4CCN(CC(=O)O)CCN(CC(=O)O)CC4)C(N)=O)C3=O)C2=O)C(=O)NCCOCCOCC(N)=O)cc1)C(C)C)C(N)=O (stereo partly drawn) [[68Ga]Ga-16, metal not drawn]							-2.55 ± 0.13
CSCC[C@H](NC(=O)[C@H](CC(C)C)NC(=O)[C@H](Cc1c[nH]cn1)NC(=O)CNC(=O)[C@@H](NC(=O)[C@H](C)NC(=O)[C@H](Cc1c[nH]c2ccccc12)NC(=O)[C@H](CCC(N)=O)NC(=O)CCOCCOCCOCCOCCNC(=O)CON=Cc1ccc(C(=O)NCCCN(CCCNC(=O)c2ccc(C=NOCC(=O)NCCOCCOCCOCCOCCC(=O)N[C@@H](CCC(N)=O)C(=O)N[C@@H](Cc3c[nH]c4ccccc34)C(=O)N[C@@H](C)C(=O)N[C@H](C(=O)NCC(=O)N[C@@H](Cc3c[nH]cn3)C(=O)N[C@@H](CC(C)C)C(=O)N[C@@H](CCSC)C(N)=O)C(C)C)cc2)CC(=O)N[C@H](CSC2CC(=O)N(CCN3C(=O)CC(SC[C@H](NC(=O)CNC(=O)CC[C@H](C(=O)O)N4CCN(CC(=O)O)CCN(CC(=O)O)CC4)C(N)=O)C3=O)C2=O)C(=O)NCCOCCOCC(N)=O)cc1)C(C)C)C(N)=O (stereo partly drawn) [[68Ga]Ga-17, metal not drawn]							-2.38 ± 0.03

Further lines, with some results ahead:

logD [1]	Stokes Shift [2]	λmax(abs) [2]	log ε [2]	λmax(em) [2]	logD [3]	Compound	logD [4]
-3.95 ± 0.15	19 nm	756 nm	5.32 M^−1 cm^−1	775 nm		CC1(C)C(/C=C/C2=C(c3ccc(CCC(=O)O)cc3)C(=C/C=C3/N(CCCCS(=O)(=O)[O-])c4ccc(S(=O)(=O)O)cc4C3(C)C)/CCC2)=[N+](CCCCS(=O)(=O)O)c2ccc(S(=O)(=O)O)cc21 [Compound 3]	
					-0.99 ± 0.03	CSCC[C@H](NC(=O)[C@H](CC(C)C)NC(=O)[C@H](Cc1c[nH]cn1)NC(=O)CNC(=O)[C@@H](NC(=O)[C@H](C)NC(=O)[C@H](Cc1c[nH]c2ccccc12)NC(=O)[C@H](CCC(N)=O)NC(=O)CCOCCOCCOCCOCCNC(=O)CON=Cc1ccc(C(=O)NCCCN(CCCNC(=O)c2ccc(C=NOCC(=O)NCCOCCOCCOCCOCCC(=O)N[C@@H](CCC(N)=O)C(=O)N[C@@H](Cc3c[nH]c4ccccc34)C(=O)N[C@@H](C)C(=O)N[C@H](C(=O)NCC(=O)N[C@@H](Cc3c[nH]cn3)C(=O)N[C@@H](CC(C)C)C(=O)N[C@@H](CCSC)C(N)=O)C(C)C)cc2)CC(=O)N[C@H](CSC2CC(=O)N(CCN3C(=O)CC(SC)C3=O)C2=O)C(=O)NCCOCCOCC(N)=O)cc1)C(C)C)C(N)=O (stereo partly drawn) [Compound 18]	
